{"source": "patent US20240199654A1", "about": "“CTLA-4 SMALL MOLECULE DEGRADATION AGENT AND APPLICATION THEREOF” (SUZHOU GUOKUANG PHARMTECH. CO., LTD., priority 2021, published 2024)", "key": {"[1]": {"tested_on": "Mouse colon cancer MC-38 cells", "assay": "In vivo activity research of xenograft model (MC-38)", "set-up": "species or system C57BL/6 mice", "conditions": "for TGI(%): 30 mg/kg, oral, once a day, MC-38 subcutaneous in C57BL/6 mice", "method": "1. Cell culture: Mouse colon cancer MC-38 cells were adherently cultured in vitro. The culture conditions were RPMI-1640 medium with 10% fetal bovine serum, 100 U/mL penicillin and 100 μg/mL streptomycin, 37° C. 5% CO2 incubator culture. Passaged with routine processing two to three times a week. When the cell saturation was 80%-90% and the number reached the requirement, the cell count was collected, and the cell concentration was adjusted for experimental inoculation. 2. Animals: C57BL/6 mice, female, 7 weeks old, 18-20 grams in weight, 8 mice per group. 3. Tumor inoculation: 0.02 mL (0.2×10^6) MC-38 cells were subcutaneously inoculated into the right back of each mouse. On the 7th day after inoculation, the tumor volumes of the animals were measured, and then the groups were randomized according to tumor volume and administration was started. 4. Experimental indicators: The experimental indicators were used to examine whether the tumor growth is inhibited, delayed or cured. Tumor diameters were measured with vernier calipers two to three times a week. The calculation formula of tumor volume is: V=0.5a×b^2, wherein a and b respectively represent the long and short diameters of tumors. The anti-tumor effect of the compounds was expressed by TGI (%). TGI (%), reflecting tumor growth inhibition rate. Calculation of TGI(%): TGI(%)=[(1-(average tumor volume at the end of administration of a treatment group−average tumor volume at the beginning of administration of the treatment group))/(average tumor volume at the end of treatment of the solvent control group−average tumor volume at the beginning of treatment of the solvent control group)]×100%. 5. Animal experiment grouping, administration program and experimental results: […]"}, "[2]": {"molecular_target": "T1, LRBA and CTLA-4 reporting system (Homo sapiens, UniProt P16410+P50851)", "T1 construct": "expressed in transfected cells; host or cells: HEK293", "T1 sequence (P16410 36-223)": "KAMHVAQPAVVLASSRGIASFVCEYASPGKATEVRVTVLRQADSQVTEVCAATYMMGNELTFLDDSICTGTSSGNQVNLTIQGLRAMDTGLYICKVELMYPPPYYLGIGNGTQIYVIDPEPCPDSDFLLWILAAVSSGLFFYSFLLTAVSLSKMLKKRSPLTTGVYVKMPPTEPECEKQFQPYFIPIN", "T1 sequence (P50851 whole entry)": "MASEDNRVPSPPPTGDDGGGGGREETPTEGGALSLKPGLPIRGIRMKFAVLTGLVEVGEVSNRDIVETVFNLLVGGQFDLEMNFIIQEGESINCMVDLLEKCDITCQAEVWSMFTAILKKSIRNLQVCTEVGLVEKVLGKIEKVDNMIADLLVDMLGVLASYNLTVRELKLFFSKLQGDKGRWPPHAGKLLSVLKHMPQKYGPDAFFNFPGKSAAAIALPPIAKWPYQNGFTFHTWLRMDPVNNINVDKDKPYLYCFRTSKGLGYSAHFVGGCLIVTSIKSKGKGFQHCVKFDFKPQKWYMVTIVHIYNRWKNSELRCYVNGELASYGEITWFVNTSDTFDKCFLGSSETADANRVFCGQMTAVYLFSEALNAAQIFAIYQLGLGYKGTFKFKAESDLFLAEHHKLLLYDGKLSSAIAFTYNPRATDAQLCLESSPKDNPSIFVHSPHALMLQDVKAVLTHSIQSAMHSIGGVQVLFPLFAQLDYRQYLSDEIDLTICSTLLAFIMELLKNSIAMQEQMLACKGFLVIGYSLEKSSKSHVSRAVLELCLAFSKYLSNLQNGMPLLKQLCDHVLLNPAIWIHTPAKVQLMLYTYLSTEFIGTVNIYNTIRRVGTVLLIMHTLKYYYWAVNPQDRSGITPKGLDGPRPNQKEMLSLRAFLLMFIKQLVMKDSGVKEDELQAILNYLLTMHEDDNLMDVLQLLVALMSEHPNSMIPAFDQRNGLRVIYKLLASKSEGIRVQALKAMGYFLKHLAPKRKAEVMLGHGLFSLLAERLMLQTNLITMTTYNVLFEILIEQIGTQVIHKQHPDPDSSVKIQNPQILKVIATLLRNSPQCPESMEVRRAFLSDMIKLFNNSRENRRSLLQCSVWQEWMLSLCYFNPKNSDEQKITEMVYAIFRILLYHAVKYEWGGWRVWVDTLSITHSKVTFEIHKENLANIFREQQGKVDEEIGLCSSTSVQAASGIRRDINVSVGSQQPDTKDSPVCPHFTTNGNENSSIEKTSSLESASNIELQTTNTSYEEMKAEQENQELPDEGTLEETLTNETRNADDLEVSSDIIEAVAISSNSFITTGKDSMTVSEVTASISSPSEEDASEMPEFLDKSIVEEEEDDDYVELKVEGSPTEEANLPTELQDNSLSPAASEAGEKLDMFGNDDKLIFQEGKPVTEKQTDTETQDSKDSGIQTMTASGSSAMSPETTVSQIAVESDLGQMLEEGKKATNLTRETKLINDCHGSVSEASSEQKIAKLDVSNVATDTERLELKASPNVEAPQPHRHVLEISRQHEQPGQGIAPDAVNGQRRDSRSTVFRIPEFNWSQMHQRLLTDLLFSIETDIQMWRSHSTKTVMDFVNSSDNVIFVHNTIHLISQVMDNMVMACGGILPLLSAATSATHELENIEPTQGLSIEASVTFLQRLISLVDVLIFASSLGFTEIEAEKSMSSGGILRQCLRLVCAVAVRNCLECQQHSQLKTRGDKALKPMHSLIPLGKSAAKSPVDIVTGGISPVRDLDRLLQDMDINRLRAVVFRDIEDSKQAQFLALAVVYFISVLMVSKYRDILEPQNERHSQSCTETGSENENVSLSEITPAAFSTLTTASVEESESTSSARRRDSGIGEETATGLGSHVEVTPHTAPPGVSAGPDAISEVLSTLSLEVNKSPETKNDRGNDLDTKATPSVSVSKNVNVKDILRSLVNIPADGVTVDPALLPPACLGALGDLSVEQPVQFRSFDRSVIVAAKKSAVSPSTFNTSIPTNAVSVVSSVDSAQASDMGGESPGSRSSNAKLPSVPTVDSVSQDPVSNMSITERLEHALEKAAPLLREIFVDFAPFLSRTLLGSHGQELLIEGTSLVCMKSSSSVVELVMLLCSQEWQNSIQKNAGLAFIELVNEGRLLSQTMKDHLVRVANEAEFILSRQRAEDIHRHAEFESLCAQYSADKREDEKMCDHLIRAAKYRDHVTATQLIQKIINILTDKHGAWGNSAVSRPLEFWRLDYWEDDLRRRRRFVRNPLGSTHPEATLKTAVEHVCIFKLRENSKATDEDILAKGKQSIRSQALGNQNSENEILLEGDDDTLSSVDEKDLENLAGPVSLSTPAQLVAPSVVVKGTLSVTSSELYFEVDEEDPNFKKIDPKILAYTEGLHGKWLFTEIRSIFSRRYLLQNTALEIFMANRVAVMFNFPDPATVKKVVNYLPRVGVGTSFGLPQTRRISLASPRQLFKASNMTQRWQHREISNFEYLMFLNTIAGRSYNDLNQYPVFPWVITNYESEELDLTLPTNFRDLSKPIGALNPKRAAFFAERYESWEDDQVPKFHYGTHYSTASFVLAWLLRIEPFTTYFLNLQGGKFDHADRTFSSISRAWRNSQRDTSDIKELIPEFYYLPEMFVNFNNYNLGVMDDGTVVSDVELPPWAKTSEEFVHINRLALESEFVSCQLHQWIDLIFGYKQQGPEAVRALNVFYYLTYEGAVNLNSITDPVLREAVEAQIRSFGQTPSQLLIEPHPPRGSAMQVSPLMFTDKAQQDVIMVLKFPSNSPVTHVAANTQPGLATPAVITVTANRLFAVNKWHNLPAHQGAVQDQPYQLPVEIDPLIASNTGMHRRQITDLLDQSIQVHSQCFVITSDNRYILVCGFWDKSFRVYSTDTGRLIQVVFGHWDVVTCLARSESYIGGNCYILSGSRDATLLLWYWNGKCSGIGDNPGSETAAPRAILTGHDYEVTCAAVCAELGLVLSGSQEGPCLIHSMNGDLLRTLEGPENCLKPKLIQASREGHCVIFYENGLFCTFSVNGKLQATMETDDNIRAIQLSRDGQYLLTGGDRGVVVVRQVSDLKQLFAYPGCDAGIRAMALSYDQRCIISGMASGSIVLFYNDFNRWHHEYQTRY", "assay": "LRBA/CTLA-4 protein-protein interaction reporting system, dual luciferase assay in HEK293 cells", "assay_type": "cell-based", "conditions": "HEK293 cells co-transfected with LRBA and CTLA-4 reporting system, 24 h after dosing; read-out: In vitro activity (IC50: concentration of compounds that inhibit 50% of reporting system activity)", "method": "HEK293 cells were spread on 96-well plates, and LRBA and CTLA-4 reporting system were co-transfected into HEK293 cells after 24 h. After 24 h, different compounds with final concentrations of 0.01, 0.033, 0.10, 0.33, 1.00, 3.33, 10.00, 33.33, and 100.00 μM were added. 24 h after dosing, the cell culture medium was removed and the cells were washed with cold PBS. Then the activity of the compounds were detected by the dual luciferase assay kit, and IC50 values were calculated according to the results.\nFor the compounds with strong activity (IC50<200 nM), the degradation of CTLA-4 protein was further detected by Western Blot. • IC50: Concentration of compounds that inhibit 50% of reporting system activity The size of IC50 is divided into four levels: • ++++, IC50<200 nM; +++, IC50 is 200-1000 nM; ++, IC50 is 1000-2000 nM; +, IC50>2000 nM."}, "Hepatocellular carcinoma": {"tested_on": "Hepatocellular carcinoma", "conditions": "clinical; cited from earlier work"}, "[3]": {"tested_on": "Non-small cell lung cancer", "conditions": "clinical; cited from earlier work"}, "[4]": {"tested_on": "Colorectal cancer (MSI-H/dMMR)", "conditions": "clinical; cited from earlier work"}}, "note": "pIC50: −log10 of the molar value.", "data": [{"molecule": "c1ccc2ncc(-c3ccnc(N4CCNCC4)n3)cc2c1", "note": "[Compound 18, 3-(2-(piperazin-1-yl)pyrimidin-4-yl)quinoline]", "values": [{"measurement": "TGI(%)", "setting": "[1]", "value": 90, "unit": "%"}, {"measurement": "anti-tumor effect in tumor transplantation model in vivo", "setting": "[1]; MC-38 model", "value": "excellent anti-tumor effects"}, {"measurement": "pIC50", "setting": "[2]", "value": "> 6.70"}]}, {"molecule": "c1ccc2ncc(-c3cc(N4CCNCC4)ncn3)cc2c1", "note": "[Compound 44, 3-(6-(piperazin-1-yl)pyrimidin-4-yl)quinoline]", "values": [{"measurement": "TGI(%)", "setting": "[1]", "value": 85, "unit": "%"}, {"measurement": "pIC50", "setting": "[2]", "value": "> 6.70"}]}, {"molecule": "Cn1ncc2c(-c3cnc4ccccc4c3)nc(N3CCNCC3)nc21", "note": "[Compound 52, 3-(1-methyl-6-(piperazin-1-yl)-1H-pyrazolo[3,4-d]pyrimidin-4-yl)quinoline]", "values": [{"measurement": "pIC50", "setting": "[2]", "value": "5.70 to 6.00"}]}, {"molecule": "Cc1c(-c2cnc3ccccc3c2)ncnc1N1CCNCC1", "note": "[Compound 53, 3-(5-methyl-6-(piperazin-1-yl)pyrimidin-4-yl)quinoline]", "values": [{"measurement": "pIC50", "setting": "[2]", "value": "> 6.70"}]}, {"molecule": "Nivolumab [O drug]", "values": [{"measurement": "ORR", "setting": "Hepatocellular carcinoma", "value": "single O drug group ORR = 15%"}, {"measurement": "ORR", "setting": "[3]", "value": "single O drug group ORR = 14.5%"}, {"measurement": "ORR", "setting": "[4]", "value": "single O drug group ORR = 36%"}]}]}
